Like-named read-outs stand apart in the source and are kept apart here.
Experiments:
[1] = system: MCF-7 human breast adenocarcinoma cell line; test: SRB cell proliferation (cytotoxicity) assay, MCF-7
Description: (§1) The XLSTAT software was used to determine the IC50, TGI and LC50 values using the four-parameter logistic curve equation.

[2] = system: SK-BR-3 human breast adenocarcinoma; test: SRB cell proliferation (cytotoxicity) assay, SK-BR-3
Description: as §1

[3] = system: DU-145 human prostate carcinoma cell line; test: SRB cell proliferation (cytotoxicity) assay, DU-145; conditions: for Relative cell viability (%): human
Description: as §1

[4] = system: NHF human foreskin skin fibroblasts; test: SRB cell proliferation (cytotoxicity) assay, NHF; conditions: for IC50: read-out: IC50: Concentration to inhibit 50% of cell growth
Description: as §1

[5] = system: A-375 human malignant melanoma; test: SRB cell proliferation (cytotoxicity) assay, A-375
Description: as §1

[6] = system: HCT 116 human colorectal carcinoma; test: SRB cell proliferation (cytotoxicity) assay, HCT 116
Description: as §1

[7] = system: HT-29 human colorectal adenocarcinoma; test: SRB cell proliferation (cytotoxicity) assay, HT-29
Description: as §1

[8] = system: OVCAR-3 human ovarian adenocarcinoma cell line; test: SRB cell proliferation (cytotoxicity) assay, OVCAR-3; conditions: for Relative cell viability (%): human
Description: as §1

in vitro = conditions: human
Description: as §1

[9] = Homo sapiens, MCF7, read-out: Relative cell viability (%)
[10] = Homo sapiens, SK-BR-3, read-out: Relative cell viability (%)
[11] = Homo sapiens, DU-145, read-out: Relative cell viability (%)
[12] = Homo sapiens, OVCAR-3, read-out: Relative cell viability (%)
[13] = Homo sapiens, A-375, read-out: Relative cell viability (%)
[14] = Homo sapiens, HCT-116, read-out: Relative cell viability (%)
[15] = Homo sapiens, HT-29, read-out: Relative cell viability (%)

In the case of `N.N.[Cl][Pt][Cl]` [Cisplatin, reference compound], the “TGI: Concentration for total inhibition of cell growth” value ([1]; MCF-7) is reported as 35869 nM, the “TGI: Concentration for total inhibition of cell growth” value ([2]; SK-BR-3) is reported as 4491 nM and the IC50 ([2]; read-out: IC50: Concentration to inhibit 50% of cell growth, SK-BR-3) is reported as < 3910 nM. For the same compound, the “TGI: Concentration for total inhibition of cell growth” value ([3]; DU-145) was <3906 nM, the IC50 ([3]; read-out: IC50: Concentration to inhibit 50% of cell growth, DU-145) was < 3910 nM and the “TGI: Concentration for total inhibition of cell growth” value ([4]; NHF) was 16139 nM. For the same compound, the IC50 ([4]; NHF) was 4770 nM, the “TGI: Concentration for total inhibition of cell growth” value ([5]; A-375) was 7960 nM and the “TGI: Concentration for total inhibition of cell growth” value ([6]; HCT 116) was 15550 nM. The “TGI: Concentration for total inhibition of cell growth” value ([7]; HT-29) was 64977 nM and the IC50 ([7]; read-out: IC50: Concentration to inhibit 50% of cell growth, HT-29) was < 3910 nM.

`CC(=O)O[C@H]1C(=O)[C@@]2(C)[C@H]([C@H](OC(=O)c3ccccc3)[C@]3(O)C[C@H](OC(=O)[C@H](O)[C@@H](NC(=O)c4ccccc4)c4ccccc4)C(C)=C1C3(C)C)[C@]1(OC(C)=O)CO[C@@H]1C[C@@H]2O` [Paclitaxel, reference compound] gave an IC50 ([1]; Homo sapiens, MCF7, read-out: IC50: Concentration to inhibit 50% of cell growth) of 2.82 nM, a viability at 0.000781 µM [1, 9] of 87.9% and a viability at 0.001562 µM [1, 9] of 65.5%. The viability at 0.003125 µM [1, 9] was 47.6%, the viability at 0.00625 µM [1, 9] was 36.9% and the viability at 0.0125 µM [1, 9] was 29.3%. For the same compound, the viability at 0.05 µM [1, 9] was 23.6%, the viability at 0.1 µM [1, 9] was 24.7% and the IC50 ([2]; Homo sapiens, SK-BR-3, read-out: IC50: Concentration to inhibit 50% of cell growth) was 14.8 nM. The viability at 0.000781 µM [2, 10] was 113%, the viability at 0.001562 µM [2, 10] was 113% and the viability at 0.003125 µM [2, 10] was 119%. It also gave a viability at 0.00625 µM [2, 10] of 106%, a viability at 0.0125 µM [2, 10] of 68.3% and a viability at 0.05 µM [2, 10] of 12.3%. For the same compound, the viability at 0.1 µM [2, 10] was 13.9%, the “TGI: Concentration for total inhibition of cell growth” value ([3]; DU-145) was 13.021 nM and the IC50 ([3]; Homo sapiens, DU-145, read-out: IC50: Concentration to inhibit 50% of cell growth) was 7.2 nM. The viability at 0.000781 µM [3, 11] was 104%, the viability at 0.001562 µM [3, 11] was 95.5% and the viability at 0.003125 µM [3, 11] was 97.3%. The viability at 0.00625 µM [3, 11] was 58.9%, the viability at 0.0125 µM [3, 11] was 8.4% and the “Relative cell viability (%)” value ([3]; 0.05 µM) was −15.7%. For the same compound, the “Relative cell viability (%)” value ([3]; 0.1 µM) was −25.6%, the IC50 ([8]; Homo sapiens, OVCAR-3, read-out: IC50: Concentration to inhibit 50% of cell growth) was 10 nM and the CC50 ([8]; Homo sapiens, OVCAR-3, read-out: LC50: Concentration for 50% cell death) was 35.1 nM. The viability at 0.000781 µM [8, 12] was 96.9%, the viability at 0.001562 µM [8, 12] was 90.1% and the viability at 0.003125 µM [8, 12] was 89.6%. The viability at 0.00625 µM [8, 12] was 69.6%, the viability at 0.0125 µM [8, 12] was 31.1% and the “TGI: Concentration for total inhibition of cell growth” value ([8]; OVCAR-3) was 15.402 nM. The “Relative cell viability (%)” value ([8]; 0.05 µM) was −45.1%, the “Relative cell viability (%)” value ([8]; 0.1 µM) was −57.5% and the IC50 ([4]; Homo sapiens, Skin fibroblast) was 18.7 nM. For the same compound, the “TGI: Concentration for total inhibition of cell growth” value ([4]; NHF) was >100 nM, the CC50 (in vitro) was > 100 nM and the viability at 0.000781 µM (in vitro) was 86.6%. The viability at 0.001562 µM (in vitro) was 79.7%, the viability at 0.003125 µM (in vitro) was 72.1% and the viability at 0.00625 µM (in vitro) was 61.9%. The viability at 0.0125 µM (in vitro) was 58.6%, the viability at 0.05 µM (in vitro) was 28.7% and the viability at 0.1 µM (in vitro) was 16.9%. It also gave a viability at 0.000781 µM [5, 13] of 117%, a viability at 0.001562 µM [5, 13] of 96.3% and a viability at 0.003125 µM [5, 13] of 99.4%. It also gave a viability at 0.00625 µM [5, 13] of 98.8%, a viability at 0.0125 µM [5, 13] of 113% and a viability at 0.05 µM [5, 13] of 91.2%. The viability at 0.1 µM [5, 13] was 69%, the IC50 ([6]; Homo sapiens, HCT-116, read-out: IC50: Concentration to inhibit 50% of cell growth) was 6.46 nM and the viability at 0.000781 µM [6, 14] was 96.2%. It also gave a viability at 0.001562 µM [6, 14] of 96.6%, a viability at 0.003125 µM [6, 14] of 90.9% and a viability at 0.00625 µM [6, 14] of 50.6%. It also gave a viability at 0.0125 µM [6, 14] of 17.5%, a viability at 0.05 µM [6, 14] of 3.4% and a viability at 0.1 µM [6, 14] of 4.7%. It also gave an IC50 ([7]; Homo sapiens, HT-29, read-out: IC50: Concentration to inhibit 50% of cell growth) of 6.31 nM, a viability at 0.000781 µM [7, 15] of 102% and a viability at 0.001562 µM [7, 15] of 99.1%. For the same compound, the viability at 0.003125 µM [7, 15] was 80.8%, the viability at 0.00625 µM [7, 15] was 48.8% and the viability at 0.0125 µM [7, 15] was 24.5%. For the same compound, the viability at 0.05 µM [7, 15] was 6.7% and the viability at 0.1 µM [7, 15] was 5%.

— US11649460B2, “DNA aptamers, method for inhibiting human galectin-1 and method of treating a mammal in need thereof” (priority 2020, dated 2023)
